Measurements from US12115182B2, “Adenosine A2A agonists for the treatment of cytokine storm syndrome” (priority 2021, dated 2024).
“Also recorded” adds a separate entry of the source.

Assays:
[1] = system: SARS-CoV-2; experiment: Regadenoson in SARS-CoV-2-infected K18-ACE2 mice: survival; type: in vivo, mouse; conditions: for survival / mortality of infected K18-ACE2 mice: 1.44 μg/kg/hr, 7-day Alzet pump, vs saline
[2] = system: plasma cytokines/chemokines; experiment: Plasma cytokines/chemokines in lung transplant recipients (11-plex); type: in vivo, human
Procedure: Blood was drawn for cytokine/chemokine, damage associated molecular patterns (DAMPs) at the following different timepoints: 1) before infusion (baseline), 2) 15 minutes before reperfusion of the 1st lung, 3) 30 minutes after reperfusion of 1st lung, 4) 30 minutes after reperfusion of 2nd lung, and 5) 6 hours after reperfusion of 1st lung.
The cytokines/chemokines, HMGB1 and sRAGE were determined at The University of Virginia Flow Cytometry Core (RRID: SCR 017829) as previously described (LAU et al., J Heart Lung Transplant, (2020), 39:563-570). The customized 11-plex cytokine panel detects IL-1, IL-2, IL-6, IL-7, IL-8, IL-10, IL-12P40, IL-12P70, IL-17, TNFa, and IFN-γ (Millipore Sigma, Burlington, MA).
Statistical differences of cytokine/chemokines, heart rates and blood pressures between groups were determined by two-way ANOVA followed by Tukey's multiple comparison test (GraphPad Prism 9.0). The PGD scores were analyzed by chi-squared test. The intubation times and hospital LOS, ICU LOS were analyzed by ANOVA of log and Kruskal-Wallis. Data was reported as means±SD. P value equal or less than 0.05 was considered significant.

[3] = system: circulating iNKT cells; experiment: Flow cytometry of CD69 on circulating iNKT cells of COVID-19 patients during regadenoson infusion; type: in vivo, human
[4] = system: COVID-19 patients; experiment: Regadenoson infusion in hospitalized COVID-19 patients: safety and clinical monitoring; type: in vivo, human; conditions: for toxicities / side effects (nausea): during infusion or 30 days of follow-up; for SpO2: before vs 24 hours after RA infusion, pulse oximetry, N=5; for blood pressure: during and post RA infusion
Procedure: In cohort 1 of this trial, we tested the safety, tolerability, and toxicity of regadenoson in 5 COVID-19 patients (WHO stages 4-5) receiving supplemental oxygen without mechanical ventilation. All subjects received an infused loading dose of 5.0 μg/kg up to a maximum of 400 μg over 30 minutes, followed by a maintenance dose of 1.44 μg/kg/hr for 6 hours. Toxicity of regadenoson was graded by using Common Terminology for Adverse Events Criteria. Vital signs, pulse oximetry, arterial blood gas, laboratory studies, and electrocardiograms were performed on a schedule commensurate with level of care to identify potential risk of the study drug during and 12 hours post infusion. The trial was monitored by an NIH designated DSMB. Peripheral blood samples were collected at 4 timepoints. Along with clinical monitoring, plasma levels of cytokines (14-plex Luminex panel) were measured at various time points. Cytokine data were analyzed by SAS 9.5 PROC MIXED. Activation of peripheral blood mononuclear cells including iNKT cells was analyzed by flow cytometry. Flow cytometry data were analyzed by FCS Express 7 Research edition and GraphPad Prism v9. The plasma levels of regadenoson were determined via liquid chromatography-mass spectrometry.
Consented Covid-19 patients were treated with RA administered intravenously using a pediatric infusion pump at a loading dose rate of 5 μg/kg/hr for 30 min followed by a maintenance dose of 1.44 μg/kg/hr for 6 hours. Subjects' vital signs including oxygen saturation (SpO2), blood pressure, heart rate and respiratory rate were monitored throughout RA infusion.
Blood samples were drawn as a source of peripheral blood mononuclear cells (PBMCs). Cells were frozen in 10% DMSO and thawed for analysis of live cells by flow cytometry. Cytokines, CRP, and D dimer levels were measured in plasma. Blood samples were collected just prior to the start of RA infusion (0 hr), just prior to the end of the loading dose (30 min), 4 hours into the maintenance dose (4.5 hr), and the next day (24 hr).

[5] = cited from earlier work

SMILES: CNC(=O)c1cnn(-c2nc(N)c3ncn([C@@H]4O[C@H](CO)[C@@H](O)[C@H]4O)c3n2)c1 [Regadenoson]
- treated mice died ([1]; 1.44 μg/kg/hr subcutaneous infusion, 7-day pump, mostly on day 7): 50%
- survival / mortality of infected K18-ACE2 mice [1]: increases survival
- survival / mortality of infected K18-ACE2 mice ([1]; listed as RA): decreases mortality
- transplant-induced elevation of TNF-α ([2]; 30 minutes after reperfusion of 1st lung, low dose p=0.071, high dose p=0.154): trended toward reducing
- transplantation-induced plasma levels of IL-6 ([2]; 30 minutes after reperfusion of 2nd lung, low dose p=0.041, high dose p=0.007 vs control): significantly inhibited
- plasma IL-10 ([2]; low dose infusion, p=0.078): trended toward increasing
- plasma levels of IL-8 ([2]; low dose, 30 minutes after reperfusion of 2nd lung, p=0.032): significantly reduced
- expression of activation marker CD69 on circulating iNKT cells ([3]; 4 hours into the maintenance dose): significantly reduced
- expression of activation marker CD69 on circulating iNKT cells ([3]; after the 30 min loading dose): significantly reduced
- reduction of the fraction of circulating iNKT cells that are CD69+ ([3]; within 30 minutes): 50%
- toxicities / side effects (nausea) ([4]; 5 COVID-19 patients): Transient and self-limiting nausea was reported by a single subject
- toxicities / side effects (nausea) ([4]; 5 COVID-19 patients, listed as RA): 1 case of transient self-limiting nausea, but no other toxicities or reportable side effects
- serious adverse events ([4]; 5 COVID-19 patients, loading dose 5.0 μg/kg over 30 minutes, maintenance 1.44 μg/kg/hr for 6 hours): No serious adverse events were observed
- time to discharge ([4]; 5 patients, all recovered): 3 to 9 days
- D dimer levels ([4]; 24 hours post RA infusion, n=5): significantly decreased
- SpO2 after the RA infusion ([4]; Case 3, 88% on admission): 97%
- SpO2 [4]: significantly less (P<0.05) than 24 hours after treatment; also recorded: statistically significant difference
- SpO2 ([4]; listed as RA): significantly further elevated
- blood pressure ([4]; n=5): no significant changes
- blood pressure ([4]; n=5, listed as RA): remain stable
- CRP levels reduced by ([4]; in 3 of 4 patients, 24 hours after RA infusion): > 50%
- vital signs ([4]; throughout the infusion and 12 hours post infusion): stable
- subjective symptoms ([4]; within 24 hours of RA treatment): subjective improvement in all subjects
- peak plasma level ([5]; 400 μg bolus over 10 seconds for myocardial perfusion imaging): about 15 ng/ml
- steady-state plasma level ([5]; after infusion for 6 hours of 1.44 μg/kg/h, prior sickle cell disease trial): about 2 ng/ml
- terminal half-life ([5]; in vivo): 2 h
- safety / side effects ([5]; infusion at 1.44 μg/kg/h for 24-48 h, sickle cell crisis and lung transplantation): safe and devoid of side effects
